From US4232121A, “Process for selecting methine dyes which inhibit cell growth” (Eastman Kodak Company, priority 1978, dated 1980) come the findings set out here.

Read-outs that look alike come from different tables or passages of the source.

For data set [1], the system named is Bacillus pumilus strain K-1. Nature of the data set: Inhibition of bacterial growth, filter paper on inoculated agar plates. It is filed as cell-based. Conditions: for zone of inhibition at 1000 µM: Bacillus pumilus, read-out: Diameter of Inhibition. The protocol: Nutrient broth was prepared by mixing 8 grams of BACTO dehydrated nutrient broth per liter of distilled water. […] Samples of the nutrient broth were then inoculated with Bacillus pumilus strain K-1 culture. […]
Nutrient agar was prepared by mixing 23 grams of BACTO nutrient agar per liter of distilled water. The nutrient agar was sterilized in the same way as the nutrient broth. After it has cooled to about 45° C. 250 ml of the nutrient agar solution was aeseptically inoculated with 5 ml of the Bacillus pumilus, K-1 culture prepared in (A), above. Plates of the inoculated nutrient agar were then poured and allowed to harden.
[…] To minimize possible photocatalyzed reactions of the dyes, all preparations were performed under yellow lights and all incubations were performed in the dark.
Schleider and Schuell #740-E filter paper (12.7 mm diameter) was dipped in the dye solution, touched to the side of the beaker to removed excess dye, and placed in the center of the inoculated agar plates (prepared in (B) above). […] The plates were then examined to determine if bacterial growth had been affected by the dye-containing filter paper. […]
Control plates were prepared in which the filter paper contained methanol or a 0.2 molar aqueous solution of phenol. […]

The conditions of data set [2]: not told.
The subject of another data set is Bacillus pumilus (K-1). On the procedure: This can be accomplished by contacting a given concentration of the dye with the cells, removing the cells from the dye solution and then comparing the optical density (at λmax) of the remaining dye solution with a control containing the original concentration of the dye. The percentage decrease in optical density indicates the percentage of dye which has been bound to the cells.
The culture was collected by centrifugation at 5,000×g. for 10 minutes, and the resultant pellet was washed several times in cold 0.05 M potassium phosphate buffer, pH 7.0. The pellet was resuspended in the buffer solution to a final optical density of 1.0 at 620 nm as measured with a Bausch and Lomb Spectronic 20.
One-tenth ml of dye solution (1 mg/ml in methanol) was added to a tube containing 5 ml of cell suspension described above and a control tube containing 0.05 M potassium phosphate buffer, pH 7.0. All tubes were well agitated using a Vari-Whirl Mixer (Will Scientific Co.) and then centrifuged at 10,000×g. for 10 minutes.
The percent binding of dye to the cells for each dye, was determined by comparison of the density at λmax of the control supernatant sample with the density at λmax of the supernatant of the cell sample.

Where [3] appears, read: K1, 72 h, Tables V and VI, 10^-3 molar, three days.
[4] abbreviates: Tables V and VI, 10^-3 molar, three days.

Take `CCN1C(=CC=Cc2oc3cccc(OC(C)=O)c3[n+]2CC)Oc2cccc(OC(C)=O)c21` [7,4,4'-diacetoxy]: the zone of inhibition at 1000 µM in data set [1] (setting [3]) worked out at 15 mm.

As to `CCN1C(=CC=Cc2oc3cccc(O)c3[n+]2CC)Oc2cccc(O)c21` [7,4,4'-dihydroxy], the zone of inhibition at 1000 µM in data set [1] (setting [3]) is 13 mm.

As for `CCN1C(=CC=Cc2oc3ccc(NC(C)=O)cc3[n+]2CC)Oc2ccc(NC(C)=O)cc21` [7,5,5'-acetamido], the “Diameter of Inhibition” value in data set [1] (setting [4]) is “None”.

`CCN1C(=CC=Cc2oc3ccc(OC(C)=O)cc3[n+]2CC)Oc2ccc(OC(C)=O)cc21` [7,5,5'-diacetoxy]: the ER in data set [2] is on record as -1.18. Further, the zone of inhibition at 1000 µM in data set [1] (setting [3]) turned out to be 30.5 mm.

In the case of `CCN1C(=CC=Cc2oc3ccc(Br)cc3[n+]2CC)Oc2ccc(Br)cc21` [7,5,5'-dibromo], the zone of inhibition at 1000 µM in data set [1] (setting [3]) was 22.5 mm.

For `CN1C(=CC=Cc2oc3ccc(C(=O)O)cc3[n+]2C)Oc2ccc(C(=O)O)cc21` [7,5,5'-dicarboxy-N,N'-methyl], the “Diameter of Inhibition” value in data set [1] (setting [4]) is “None”.

For `CCN1C(=CC=Cc2oc3ccc(Cl)cc3[n+]2CC)Oc2ccc(Cl)cc21` [7,5,5'-dichloro], the zone of inhibition at 1000 µM in data set [1] (setting [3]) was 26.5 mm.

For the molecule `CN1C(=CC=Cc2oc3ccc(C#N)cc3[n+]2C)Oc2ccc(C#N)cc21` [7,5,5'-dicyano-N,N'-methyl], the ER entry in data set [2] was “-.99”. Besides, the “Diameter of Inhibition” value in data set [1] (setting [4]) is given as “None”.

As for `CCOc1ccc2c(c1)N(CC)C(=CC=Cc1oc3ccc(OCC)cc3[n+]1CC)O2` [7,5,5'-diethoxy], in data set [1] (setting [3]), the zone of inhibition at 1000 µM was 14 mm.

For `CCc1ccc2c(c1)N(CC)C(=CC=Cc1oc3ccc(CC)cc3[n+]1CC)O2` [7,5,5'-diethyl], the zone of inhibition at 1000 µM in data set [1] (setting [3]) came to 23 mm.

Regarding `CCN1C(=CC=Cc2oc3ccc(O)cc3[n+]2CC)Oc2ccc(O)cc21` [7,5,5'-dihydroxy], the zone of inhibition at 1000 µM in data set [1] (setting [3]) was determined as 14 mm.

For `CCN1C(=CC=Cc2oc3ccc(OC)cc3[n+]2CC)Oc2ccc(OC)cc21` [7,5,5'-dimethoxy], the zone of inhibition at 1000 µM in data set [1] (setting [3]) was 23.5 mm.

In the case of `CN1C(=CC=Cc2oc3ccc([N+](=O)[O-])cc3[n+]2C)Oc2ccc([N+](=O)[O-])cc21` [7,5,5'-dinitro-N,N'-methyl], in data set [1] (setting [4]), the “Diameter of Inhibition” value was “None”.

Turning to `CCN1C(=CC=Cc2oc3ccc(-c4ccccc4)cc3[n+]2CC)Oc2ccc(-c3ccccc3)cc21` [7,5,5'-diphenyl], in data set [1] (setting [4]), the “Diameter of Inhibition” value was “None”.

With `CCN1C(=CC=Cc2oc3ccc(S(=O)(=O)[O-])cc3[n+]2CC)Oc2ccc(S(=O)(=O)O)cc21` [7,5,5'-disulfo], in data set [2], the ER was -1.27. In addition, the “Diameter of Inhibition” value in data set [1] (setting [4]) is on record as “None”.

Take `CCOc1ccc2c(c1)OC(=CC=Cc1oc3cc(OCC)ccc3[n+]1CC)N2CC` [7,6,6'-diethoxy]: the zone of inhibition at 1000 µM in data set [1] (setting [3]) is 16 mm.

Consider `CN1C(=CC=Cc2oc3cc([N+](=O)[O-])ccc3[n+]2C)Oc2cc([N+](=O)[O-])ccc21` [7,6,6'-dinitro-N,N'-methyl], for which the “Diameter of Inhibition” value in data set [1] (setting [4]) is recorded as “None”.

Regarding `CCN1C(=CC=Cc2oc3cc(-c4ccccc4)ccc3[n+]2CC)Oc2cc(-c3ccccc3)ccc21` [7,6,6'-diphenyl], in data set [1] (setting [4]), the “Diameter of Inhibition” value is “None”.

On to `CCN1C(=CC=Cc2oc3c(-c4ccccc4)cccc3[n+]2CC)Oc2c(-c3ccccc3)cccc21` [7,7,7'-diphenyl], for which, in data set [1] (setting [4]), the “Diameter of Inhibition” value is “None”.

In the case of `CCN1C(=CC=Cc2sc3cccc(OC)c3[n+]2CC)Sc2cccc(OC)c21` [17,4,4'-dimethoxy], the zone of inhibition at 1000 µM in data set [1] (setting [3]) stood at 17.5 mm.

For the molecule `CCN1C(=CC=Cc2sc3cc(OC)c(OC)cc3[n+]2CC)Sc2cc(OC)c(OC)cc21` [17,5,5',6,6'-tetramethoxy], in data set [1] (setting [4]), the “Diameter of Inhibition” value was “None”.

On to `CCN1C(=CC=Cc2sc3ccc(OC(C)=O)cc3[n+]2CC)Sc2ccc(OC(C)=O)cc21` [17,5,5'-diacetoxy], for which the zone of inhibition at 1000 µM in data set [1] (setting [3]) amounted to 15 mm.

Regarding `CCN1C(=CC=Cc2sc3ccc(Br)cc3[n+]2CC)Sc2ccc(Br)cc21` [17,5,5'-dibromo], the zone of inhibition at 1000 µM in data set [1] (setting [3]) worked out at 13.5 mm.

Regarding `CCN1C(=CC=Cc2sc3ccc(OC)cc3[n+]2CC)Sc2ccc(OC)cc21` [17,5,5'-dimethoxy], in data set [1] (setting [3]), the zone of inhibition at 1000 µM was 14.5 mm.

In the case of `CCN1C(=CC=Cc2sc3ccc(C)cc3[n+]2CC)Sc2ccc(C)cc21` [17,5,5'-dimethyl], the zone of inhibition at 1000 µM in data set [1] (setting [3]) is 14 mm.

For the molecule `CCN1C(=CC=Cc2sc3cc(NC(C)=O)ccc3[n+]2CC)Sc2cc(NC(C)=O)ccc21` [17,6,6'-diacetamido], the “Diameter of Inhibition” value in data set [1] (setting [4]) is recorded as “None”.

As for `CCN1C(=CC=Cc2sc3cc(OC(C)=O)ccc3[n+]2CC)Sc2cc(OC(C)=O)ccc21` [17,6,6'-diacetoxy], the zone of inhibition at 1000 µM in data set [1] (setting [3]) was 17 mm.

Turning to `CN1C(=CC=Cc2sc3cc(N)ccc3[n+]2C)Sc2cc(N)ccc21` [17,6,6'-diamino-N,N'-dimethyl], the “Diameter of Inhibition” value in data set [1] (setting [4]) was “None”.

`CCN1C(=CC=Cc2sc3cc(Br)ccc3[n+]2CC)Sc2cc(Br)ccc21` [17,6,6'-dibromo]: the ER result in data set [2] is “-.88”. Also, in data set [1] (setting [4]), the “Diameter of Inhibition” value is “None”.

`CCN1C(=CC=Cc2sc3cc(Cl)ccc3[n+]2CC)Sc2cc(Cl)ccc21` [17,6,6'-dichloro]: the ER entry in data set [2] is recorded as “-.87”. Further, the zone of inhibition at 1000 µM in data set [1] (setting [3]) worked out at 14 mm.

Turning to `CN1C(=CC=Cc2sc3cc(C#N)ccc3[n+]2C)Sc2cc(C#N)ccc21` [17,6,6'-dicyano-N,N'-dimethyl], the “Diameter of Inhibition” value in data set [1] (setting [4]) is reported as “None”.

For `CCOc1ccc2c(c1)SC(=CC=Cc1sc3cc(OCC)ccc3[n+]1CC)N2CC` [17,6,6'-diethoxy], the zone of inhibition at 1000 µM in data set [1] (setting [3]) was 15 mm.

Take `CCN1C(=CC=Cc2sc3cc(F)ccc3[n+]2CC)Sc2cc(F)ccc21` [17,6,6'-difluoro]: the ER in data set [2] is recorded as -1.06. Besides, in data set [1] (setting [3]), the zone of inhibition at 1000 µM stood at 18 mm.

Regarding `CCN1C(=CC=Cc2sc3cc(O)ccc3[n+]2CC)Sc2cc(O)ccc21` [17,6,6'-dihydroxy], in data set [1] (setting [3]), the zone of inhibition at 1000 µM came out at 15.5 mm.

Regarding `CCN1C(=CC=Cc2sc3cc(OC)ccc3[n+]2CC)Sc2cc(OC)ccc21` [17,6,6'-dimethoxy], the zone of inhibition at 1000 µM in data set [1] (setting [3]) amounted to 15 mm.

Regarding `CCN1C(=CC=Cc2sc3cc(C)ccc3[n+]2CC)Sc2cc(C)ccc21` [17,6,6'-dimethyl], in data set [1] (setting [3]), the zone of inhibition at 1000 µM was determined as 15 mm.

Regarding `CCN1C(=CC=Cc2sc3cc(S(=O)(=O)O)ccc3[n+]2CC)Sc2cc(S(=O)(=O)[O-])ccc21` [17,6,6'-disulfo], the “Diameter of Inhibition” value in data set [1] (setting [4]) was “None”.

On to `CCN1C(=CC=Cc2sc3c(OC)cccc3[n+]2CC)Sc2c(OC)cccc21` [17,7,7'-dimethoxy], for which, in data set [1] (setting [3]), the zone of inhibition at 1000 µM came to 14.5 mm.

Regarding `CCN1C(=CC=Cc2sc3c(N(C)C)cccc3[n+]2CC)Sc2c(N(C)C)cccc21` [17,7,7'-dimethylamino], the zone of inhibition at 1000 µM in data set [1] (setting [3]) was determined as 14 mm.

As for `CCN1C(=CC=Cc2sc3cc(I)ccc3[n+]2CC)Sc2cc(I)ccc21` [17, 6.6'-diiodo], the ER entry in data set [2] is “-.84”. Also, the “Diameter of Inhibition” value in data set [1] (setting [4]) is “None”.

On to `CCN1C(=CC=Cc2sc3ccccc3[n+]2CC)Sc2ccccc21` [17, ClO4^-], for which the zone of inhibition at 1000 µM in data set [1] (K1, 72 h, Table IV, 10^-3 molar, three days, differing anions) worked out at 19 mm.

For the molecule `CCN1C(=Cc2sc3ccc4ccccc4c3[n+]2CC)Sc2ccc3ccccc3c21` [Dye 2], the “% Bound” value in the data set with Bacillus pumilus (K-1) is 31.8%. This molecule had an ER in data set [2] of -1.60. The “reduction potential (ER)” value in data set [2] is reported as -1.60 volts. The “Activity Rating” value in data set [1] is listed as 0. In addition, the “Diameter of Inhibition” value in data set [1] (Table II, 10^-4 molar, 26° C., forty-eight hours) is “None”; in data set [1] (Table IX, 10^-3 M), “None”; in data set [1] (Table IX, 10^-4 M), “None”.

Consider `CCN1C(=CC=Cc2oc3ccc(S(=O)(=O)O)cc3[n+]2CC)Oc2ccc(S(=O)(=O)[O-])cc21` [Dye 6], for which, in the data set on Bacillus pumilus (K-1), the “% Bound” value amounted to 3.3%. For the same molecule, the “reduction potential (ER)” value in data set [2] is listed as -1.27 volts. In data set [1], the “Activity Rating” value stood at 0. In addition, in data set [1] (Table IX, 10^-3 M), the “Diameter of Inhibition” value is reported as “None”.

`CCN1C(=CC=Cc2oc3cc(S(=O)(=O)O)ccc3[n+]2CC)Oc2cc(S(=O)(=O)[O-])ccc21` [Dye 8]: the “% Bound” value in the data set on Bacillus pumilus (K-1) is 2.6%. For the same molecule, the “reduction potential (ER)” value in data set [2] was -1.26 volts. Also, in data set [1], the “Activity Rating” value is on record as 0. The “Diameter of Inhibition” value in data set [1] (Table IX, 10^-3 M) is “None”.

For `CCN1C(=CC=Cc2oc3cc(Cl)ccc3[n+]2CC)Oc2cc(Cl)ccc21` [Dye 9], the “% Bound” value in the data set with Bacillus pumilus (K-1) was 95.1%. For the same molecule, in data set [2], the ER is given as -1.18 and the “reduction potential (ER)” value is reported as -1.18 volts. Also, in data set [1], the “Activity Rating” value is listed as 71. Besides, the zone of inhibition at 1000 µM in data set [1] (K1, Table IX, 10^-3 M) is 30.5 mm.
